These results are taken from patent publication US7022855B2, “Halogen-substituted quinoline derivatives and ectoparasite control agent” (Meiji Seika Kaisha, Ltd., priority 2001, dated 2006).

Holding throughout (assay type): in vivo
Test [1] concerns Haemaphysalis longicornis. Kind of test: Tickcidal effect against Haemaphysalis longicornis (dry film on glass Schale). Conditions: larva ticks, 24 hr, 25° C., relative humidity 100%; for Death rate, %: 10 ppm; for pest or weed control at 10 ppm: Haemaphysalis longicornis, read-out: Death rate, %. How it is done: A test compound solution (1.0 ml) prepared by dissolving a test compound in acetone and diluting the solution with acetone to 10 ppm was dropped on a glass Schale having a diameter of 9 cm. Acetone was evaporated at room temperature to form a dry film of the test compound at the bottom of the Schale. Larva ticks of Haemaphysalis longicornis (40 to 100 head) were released in the Petri dish, and the Schale was then lidded and was hermetically sealed by covering with a polyethylene sheet. Rearing was carried out at a temperature of 25° C. and a relative humidity of 100% under fully darkened conditions. The number of ticks, which have fallen on their side, was counted 24 hr after the initiation of rearing. The death rate (%) was determined from the number of dead ticks. The test was repeated twice.

In a further test the test system is Dermanyssus gallinae. In words: Miticidal effect against Dermanyssus gallinae (treated Pasteur pipette, contact test). The settings on record: 50 ppm in acetone, sucking adult mites, 24 hr after treatment, 25° C.; for pest or weed control at 50 ppm: Dermanyssus gallinae, read-out: Death rate, %. An excerpt: (§1) The tip of a Pasteur pipette was sealed with Parafilm, and a sample compound diluted with acetone to 50 ppm was poured into the pipette from its top. The Parafilm in the tip of the pipette was removed one min after the pouring to discharge the test solution, and the pipette was air dried. Thereafter, an absorbent cotton was inserted into the upper end of the pipette, and 10 sucking adult mites of Dermanyssus gallinae were released in the pipette. The tip of the pipette was sealed with Hematoseal, and the pipette was then placed in a desiccator containing a saturated ammonium sulfate solution in its bottom and was stored under fully darkened conditions at 25° C. The mites were observed under a stereomicroscope 24 hr after the treatment to judge whether the mites were dead or survived, followed by determination of the death rate of mites (%).

For the next test, the system named is Ctenocephalides felis. In words: Insecticidal effect against Ctenocephalides felis (dry film in glass tube). Conditions: non-sucking adult fleas, 24 hr, 25° C., relative humidity 90%. On the procedure: Test compound solutions (0.5 ml) prepared by dissolving a test compound in acetone and diluting the solutions with acetone to designated concentrations were placed respectively in glass tubes (inner diameter 2.6 cm, height 12 cm), and acetone was evaporated at room temperature to form a dry film of the test compound at the bottom of each glass tube. Non-sucking adult fleas (10 heads) of Ctenocephalides felis were released in the glass tubes. The glass tubes were then lidded. Whether the fleas were dead or survived was judged 24 hr after the initiation of rearing. The death rate (%) was determined from the number of dead fleas. Rearing was carried out at a temperature of 25° C. and a relative humidity of 90% under fully darkened conditions. The test was repeated three times.

The subject of a further test is Ornithonyssus sylviarum. In words: Miticidal effect against Ornithonyssus sylviarum (treated Pasteur pipette, contact test). The settings on record: 50 ppm in acetone, sucking adult mites, 24 hr after treatment, 25° C., read-out: Death rate, %.
Excerpt: as §1, with “Ornithonyssus sylviarum” for “Dermanyssus gallinae”, “rate” for “rate of mites”

For the compound “2,3-dimethyl-4-propargloxycarbonyloxy-5,6-difluoroquinoline [Compound 50]”, the “Death rate, %” value in test [1] was found to be 100%; with Dermanyssus gallinae, 95%.

In the case of `CCc1nc2cc(F)c(F)cc2c(OC(=O)C2CC2)c1C` [Compound 1, 2-ethyl-3-methyl-4-cyclopropanecarbonyloxy-6,7-difluoroquinoline], the “Death rate, %” value in the test with Ctenocephalides felis (20 ppm) came out at 100%. Further, in the test with Ornithonyssus sylviarum, the pest or weed control at 50 ppm came to 80%. Turning to `CCc1nc2ccc(F)c(F)c2c(OC(=O)C2CC2)c1C` [Compound 2, 2-ethyl-3-methyl-4-cyclopropanecarbonyloxy-5,6-difluoroquinoline], the pest or weed control at 10 ppm in test [1] amounted to 100%. The “Death rate, %” value was 97% in the test on Ctenocephalides felis (4 ppm) and 100% with Ctenocephalides felis (20 ppm). The pest or weed control at 50 ppm in the test with Ornithonyssus sylviarum and in the test on Dermanyssus gallinae was 100% throughout. As for `CCc1nc2ccc(F)c(F)c2c(OC(C)=O)c1C` [Compound 12, 2-ethyl-3-methyl-4-acetyloxy-5,6-difluoroquinoline], the pest or weed control at 50 ppm came out at 100% in the test on Ornithonyssus sylviarum and 95% with Dermanyssus gallinae. With `CCCCOC(=O)Oc1c(C)c(CC)nc2ccc(F)c(F)c12` [Compound 13, 2-ethyl-3-methyl-4-butoxycarbonyloxy-5,6-difluoroquinoline], the pest or weed control at 50 ppm in the test on Dermanyssus gallinae was 85%.

Consider `CCc1nc2ccc(F)c(F)c2c(OC(=O)OC(C)C)c1C` [Compound 14, 2-ethyl-3-methyl-4-isopropoxycarbonyloxy-5,6-difluoroquinoline], for which the pest or weed control at 50 ppm in the test on Ornithonyssus sylviarum amounted to 100%. Regarding `Cc1nc2ccc(F)c(F)c2c(OC(=O)C2CC2)c1C` [Compound 16, 2,3-dimethyl-4-cyclopropanecarbonyloxy-5,6-difluoroquinoline], the pest or weed control at 10 ppm in test [1] was 100%. Further, the pest or weed control at 50 ppm in the test on Ornithonyssus sylviarum was 80%; in the test with Dermanyssus gallinae, 100%. In the case of `CCc1nc2ccc(F)c(Cl)c2c(OC(C)=O)c1C` [Compound 19, 2-ethyl-3-methyl-4-acetyloxy-5-chloro-6-fluoroquinoline], in the test on Ctenocephalides felis (4 ppm), the “Death rate, %” value came out at 100%. The pest or weed control at 50 ppm in the test on Ornithonyssus sylviarum was found to be 100%.

For `CCc1nc2ccc(F)c(Cl)c2c(OC(=O)C2CC2)c1C` [Compound 21, 2-ethyl-3-methyl-4-cyclopropanecarbonyloxy-5-chloro-6-fluoroquinoline], the pest or weed control at 50 ppm in the test on Ornithonyssus sylviarum was found to be 100%.

In the case of `CCc1nc2ccc(F)c(F)c2c(OC(=O)OC)c1C` [Compound 24, 2-ethyl-3-methyl-4-methoxycarbonyloxy-5,6-difluoroquinoline], the pest or weed control at 10 ppm in test [1] turned out to be 100%. Also, the figures for the “Death rate, %” value in the test with Ctenocephalides felis (4 ppm) and with Ctenocephalides felis (20 ppm) were 84% and 100%, respectively. Also, the pest or weed control at 50 ppm in the test on Ornithonyssus sylviarum and in the test with Dermanyssus gallinae was 100% each time.

Take `COC(=O)Oc1c(C)c(C)nc2ccc(F)c(F)c12` [Compound 25, 2,3-dimethyl-4-methoxycarbonyl-oxy-5,6-difluoroquinoline]: in test [1], the pest or weed control at 10 ppm stood at 100%. In addition, the pest or weed control at 50 ppm in the test with Ornithonyssus sylviarum and with Dermanyssus gallinae was 100% throughout.

Regarding `CCC(=O)Oc1c(C)c(CC)nc2ccc(F)c(F)c12` [Compound 30, 2-ethyl-3-methyl-4-propionyloxy-5,6-difluoroqinoline], the “Death rate, %” value (in test [1]; in the test with Dermanyssus gallinae) was 100% throughout.

`CCOC(=O)Oc1c(C)c(CC)nc2ccc(F)c(F)c12` [Compound 33, 2-ethyl-3-methyl-4-ethoxycarbonyl-oxy-5,6-difluoroquinoline]: in the test with Dermanyssus gallinae, the pest or weed control at 50 ppm is 100%. For `CCc1nc2ccc(F)c(F)c2c(OC(=O)SC)c1C` [Compound 39, 2-ethyl-3-methyl-4-methanethiolcarbonyloxy-5,6-difluoroquinoline], the “Death rate, %” value in test [1] is reported as 100%; in the test with Ctenocephalides felis (4 ppm), 80%; in the test on Dermanyssus gallinae, 100%. In the case of `C#CCOC(=O)Oc1c(C)c(CC)nc2ccc(F)c(F)c12` [Compound 41, 2-ethyl-3-methyl-4-propargyloxycarbonyloxy-5,6-difluoroquinoline], in test [1], the pest or weed control at 10 ppm was 100%. The pest or weed control at 50 ppm in the test on Dermanyssus gallinae was 100%. For `CC(=O)Oc1c(C)c(C)nc2ccc(F)c(F)c12` [Compound 44, 2,3-dimethyl-4-acetoxy-5,6-difluoro-quinoline], the pest or weed control at 10 ppm in test [1] was 100%. Further, in the test on Dermanyssus gallinae, the pest or weed control at 50 ppm was found to be 100%. Take `CCOC(=O)Oc1c(C)c(C)nc2ccc(F)c(F)c12` [Compound 45, 2,3-dimethyl-4-ethyloxycarbonyloxy-5,6-difluoroquinoline]: in the test with Dermanyssus gallinae, the pest or weed control at 50 ppm came to 100%. Turning to `CSC(=O)Oc1c(C)c(C)nc2ccc(F)c(F)c12` [Compound 46, 2,3-dimethyl-4-methanethiolcarbonyloxy-5,6-difluoro-quinoline], the “Death rate, %” value (in test [1]; in the test with Dermanyssus gallinae) was 100% in each case. Turning to `CCc1nc2ccc(F)c(F)c2c(OC(=O)C(C)C)c1C` [Compound 48, 2-ethyl-3-methyl-4-isobutyryloxy-5,6-difluoroquinoline], in the test on Dermanyssus gallinae, the pest or weed control at 50 ppm was determined as 100%.

In the case of `C=COC(=O)Oc1c(C)c(C)nc2ccc(F)c(F)c12` [Compound 51, 2,3-dimethyl-4-vinyloxycarbonyloxy-5,6-difluoroquinoline], the pest or weed control at 50 ppm with Dermanyssus gallinae turned out to be 90%. Regarding `C#CCCOC(=O)Oc1c(C)c(C)nc2ccc(F)c(F)c12` [Compound 52, 2,3-dimethyl-4-(3-butynyl)oxycarbonyloxy-5,6-difluoroquinoline], the pest or weed control at 10 ppm in test [1] came out at 100%. Also, the “Death rate, %” value in the test on Ctenocephalides felis (4 ppm) is 70%. The pest or weed control at 50 ppm with Dermanyssus gallinae turned out to be 100%. As to `Cc1nc2ccc(F)c(F)c2c(OC(=O)/C=C/Cl)c1C` [Compound 53, 2,3-dimethyl-4-(3-transchloroacryloyloxy)-5,6-difluoroquinoline], the pest or weed control at 50 ppm in the test on Dermanyssus gallinae came out at 100%. Regarding `Cc1nc2ccc(F)c(F)c2c(OC(=O)/C=C\Cl)c1C` [Compound 54, 2,3-dimethyl-4-(3-cischloroacryloyloxy)-5,6-difluoroquinoline], in the test with Dermanyssus gallinae, the pest or weed control at 50 ppm came to 100%. As to `CCCSC(=O)Oc1c(C)c(CC)nc2ccc(F)c(F)c12` [Compound 55, 2-ethyl-3-methyl-4-propanethiolcarbonyloxy-5,6-difluoroquinoline], in the test on Dermanyssus gallinae, the “Death rate, %” value came to 100%.

Consider `C#CCCOC(=O)Oc1c(C)c(CC)nc2ccc(F)c(F)c12` [Compound 56, 2-ethyl-3-methyl-4-(3-butynyl)oxycarbonyloxy-5,6-difluoroquinoline], for which the pest or weed control at 10 ppm in test [1] is 100%. Further, the pest or weed control at 50 ppm with Dermanyssus gallinae worked out at 95%. Turning to `C=CCOC(=O)Oc1c(C)c(C)nc2ccc(F)c(F)c12` [Compound 57, 2,3-dimethyl-4-allyloxycarbonyloxy-5,6-difluoroquinoline], the pest or weed control at 50 ppm with Dermanyssus gallinae turned out to be 100%.

Take `C#CCCCC(=O)Oc1c(C)c(C)nc2ccc(F)c(F)c12` [Compound 58, 2,3-dimethyl-4-(5-hexynoyloxy)-5,6-difluoroquinoline]: the pest or weed control at 50 ppm with Dermanyssus gallinae is 80%. Regarding `COC(=O)Oc1c(C)c(C)nc2ccc(F)c(C(F)(F)F)c12` [Compound 62, 2,3-dimethyl-4-methoxycarbonyloxy-5-trifluoromethyl-6-fluoroquinoline], the pest or weed control at 50 ppm in the test on Dermanyssus gallinae came out at 100%.

In the case of `CC(=O)Oc1c(C)c(C)nc2ccc(Cl)c(Cl)c12` [Compound 65, 2,3-dimethyl-4-acetoxy-5,6-dichloro-quinoline], the pest or weed control at 50 ppm with Dermanyssus gallinae came to 80%. For `COC(=O)Oc1c(C)c(C)nc2ccc(Cl)c(Cl)c12` [Compound 67, 2,3-dimethyl-4-methoxycarbonyloxy-5,6-dichloroquinoline], the pest or weed control at 50 ppm in the test with Dermanyssus gallinae amounted to 100%.
